Results as given in US8697391B2, “Method of determining cell number or viability using hydroxyethyldisulfide” (priority 2009, dated 2014).

Experiments:
live cells = assay: Toxicity of HEDS to live cells; format: cell-based; settings: live cells reducing HEDS to mercaptoethanol
Source text: In a particular embodiment, the assay of the instant invention use hydroxyethyldisulfide (HEDS), a unique non-toxic disulfide, to measure glucose dependent metabolic activity of live cells in vitro. The survival of cells is directly proportional to the conversion of HEDS into mercaptoethanol (ME) by metabolically active live cells. Dead cells fail to convert HEDS into mercaptoethanol. Accordingly, the assays of the instant invention generally encompass contacting cells (e.g., live cells) with HEDS and then monitoring or measuring the amount of extracellular ME. The amount of ME produced from HEDS can be measured in the extracellular medium since ME is extruded out quickly into the extracellular medium. Extracellular ME may be measured, for example, by a dithiobiznitrobenzoic acid (DTNB) assay or High Performance Liquid Chromatography/Electrochemical Detection (HPLC/EC): The cells of the assay may be any cell that produces NADPH, particularly mammalian cells and yeast. The percentage of live cells may be determined by the amount of ME produced.
The ME produced inside the cells is extruded into the extracellular medium. This conversion mediated by the antioxidant system can be measured in the extracellular medium without the need for cellular extract. HPLC electrochemical detector was used to quantify the conversion of HEDS into mercaptoethanol in mammalian cells in tissue culture. […]

human cells = format: cell-based
human HCT116 cells [1] = format: cell-based
human HCT116 cells [2] = tested on: human HCT116 cells

Compound | toxic effect on cells (live cells) | decrease of the ME peak (HEDS conversion) (human cells) [%] | HEDS conversion (human HCT116 cells [1]) | survival of cells (arsenite toxicity) (human HCT116 cells [2])
OCCSSCCO [HEDS, hydroxyethyldisulfide] | no toxic effect on cells |  |  | 
arsenite |  | ~70 | concentration dependent decrease in HEDS conversion | concentration dependent decrease in the survival
